From patent US20230009145A1, “INHIBITION OF TMEM16A BY BENZBROMARONE OR NICLOSAMIDE FOR TREATING POLYCYSTIC KIDNEY DISEASE AND/OR POLYCYSTIC LIVER DISEASE” (UNIVERSITÄT REGENSBURG, priority 2019, published 2023)
Entries after “also recorded” stand apart in the source; their conditions may differ.

Columns and labels:
M1 collecting duct cells [1] = assay: M1 renal organoid / cyst model (organoid/cyst volume in matrigel); format: cell-based, mouse; details: for increase in cyst volume upon knockdown of PKD1/PKD2: M1 organoids, shPKD1/shPKD2, 5 μM inhibitor
Protocol: M1 cells were resuspended as a single-cell suspension in 50/50% Matrigel/type I collagen and transferred into 24-well plates (30×10^3 cells/well, four wells per condition) for 9 days. Medium was changed every 3 days. Every 3 days thirty random visual fields per well were photographed with an Axiovert 200 microscope (Zeiss, Germany). Cyst area of the lumina (˜30-150 cysts per condition and single experimental procedure) were measured with AxioVision (Zeiss, Germany). Cyst volume was then estimated using the formula for the volume of a sphere, 4/3πr^3.

M1 collecting duct cells [2] = assay: Ki-67 proliferation staining in M1 organoids/cysts; format: cell-based, mouse; details: M1 organoids, shPKD1/shPKD2, 5 μM inhibitor
Protocol: M1 cells grown under confluent conditions for 4 days on glass coverslips and M1 organoids grown for 6 days were fixed for 10 min with methanol at −20° C. Organoids were isolated with ice cold 5 mM EDTA in PBS and seeded in poly-L-lysine coated coverslips. After seeded, cells were fixed for 10 min with methanol at −20° C. After washing, the cells were permeabilized with 0.5% (v/v, PBS) Triton X-100 for 10 min and blocked with 1% (w/v, PBS) bovine serum albumin for 1 h at room temperature. The cells were incubated overnight with primary antibodies (moo) against rabbit anti-TMEM16A (Davids Biotechnologie, Regensburg, Germany), or rat anti-Ki-67 (DAKO, M7249, Germany) or mouse anti-acetylated tubulin (T7451, Sigma-Aldrich, Germany). Binding of the primary antibody was visualized by incubation with appropriate secondary antibodies conjugated with Alexa Fluor 488 or Alexa Fluor 546 (1:300, Molecular Probes, Invitrogen). Nuclei were stained with Hoe33342 ([…] PBS, AppliChem, Darmstadt, Germany). Glass coverslips were mounted on glass slides with fluorescent mounting medium (DakoCytomation, Hamburg, Germany) and examined with an ApoTome Axiovert 200M fluorescence microscope (Zeiss, Germany).

PKD1-/- mice (ADPKD) [3] = assay: Inhibition of cyst growth in vivo in PKD1-/- mice; parameters: species or system mouse; details: 1 μg/kg/day I.P. for 30 days
Protocol: Inducible and tubule-specific PKD1 knockout (PKD1−/−) leads to ADPKD and polycystic kidney disease. Wt mice and mice with a knockout in the gene PKD1 were treated with benzbromarone (1 μg/kg/day intraperitoneal (I.P.) benzbromarone (BBR)) for 30 days starting 4 weeks after induction of the PKD1 knockout at postnatal (PN) 20-22.

PKD1-/- mice (ADPKD) [4] = assay: Ki-67 cell proliferation in kidneys of PKD1-/- mice; format: in vivo, mouse; details: kidneys of PKD1-/- mice treated with benzbromarone
Description: Cell proliferation was examined in kidneys of control animals (PKD+/+) and PKD1−/− animals using the proliferation marker Ki-67.

TMEM16A = molecular target: T1, TMEM16A (Homo sapiens, UniProt Q5XXA6); details: references [1, 2]; cited from earlier work
T1 sequence (Q5XXA6 1-986): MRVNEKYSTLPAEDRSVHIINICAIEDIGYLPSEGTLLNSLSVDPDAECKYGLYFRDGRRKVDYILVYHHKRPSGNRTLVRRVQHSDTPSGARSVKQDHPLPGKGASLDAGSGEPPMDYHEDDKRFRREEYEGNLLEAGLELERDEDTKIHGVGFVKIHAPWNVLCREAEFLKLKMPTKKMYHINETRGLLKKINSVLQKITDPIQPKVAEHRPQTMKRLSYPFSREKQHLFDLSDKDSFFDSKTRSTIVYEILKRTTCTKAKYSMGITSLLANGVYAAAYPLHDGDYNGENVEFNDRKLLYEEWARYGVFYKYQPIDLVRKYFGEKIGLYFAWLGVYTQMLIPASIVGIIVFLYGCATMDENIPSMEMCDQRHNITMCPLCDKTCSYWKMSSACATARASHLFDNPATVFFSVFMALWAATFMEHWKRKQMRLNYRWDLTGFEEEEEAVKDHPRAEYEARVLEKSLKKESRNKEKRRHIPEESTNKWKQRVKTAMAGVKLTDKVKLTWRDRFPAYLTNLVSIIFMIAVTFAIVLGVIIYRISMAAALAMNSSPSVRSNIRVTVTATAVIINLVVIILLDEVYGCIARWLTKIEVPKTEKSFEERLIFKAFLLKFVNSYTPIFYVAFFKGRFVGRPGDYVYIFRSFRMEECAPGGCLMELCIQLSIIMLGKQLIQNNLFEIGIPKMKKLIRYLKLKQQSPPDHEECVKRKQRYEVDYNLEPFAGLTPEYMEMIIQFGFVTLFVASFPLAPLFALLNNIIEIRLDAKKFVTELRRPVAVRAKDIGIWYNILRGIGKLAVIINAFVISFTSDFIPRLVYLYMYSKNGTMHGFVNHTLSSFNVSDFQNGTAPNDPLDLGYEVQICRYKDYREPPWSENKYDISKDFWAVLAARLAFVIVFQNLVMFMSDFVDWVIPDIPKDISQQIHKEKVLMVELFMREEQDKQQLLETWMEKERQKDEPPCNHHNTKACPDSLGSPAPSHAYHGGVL

[5] = system: mouse primary renal epithelial and M1 collecting duct cells; assay: Measurement of [Ca2+]i (Fura-2); format: cell-based; details: for enhanced Ca2+ entry (SOCE) / enhanced CPA-induced store release: PKD1/PKD2 knockout cells; for enhanced Ca2+ entry (SOCE): 5 μM; for enhanced CPA-induced store release: CPA 10 μM, inhibitor 5 μM
Protocol: Primary cilium and membrane Ca^2+ signals were detected after MDCK M2 and C7 cell were transfected with 5HT6-mCherry-GECO1.0 (5HT6-GECO, Addgene, Cambridge, Mass., USA). Cells were grown to confluence in glass coverslips and serum starved for 4-6 days to induce cilium formation. Afterwards, the cells were mounted and perfused in Ringer's solution. The mCherry fluorescence of the indicator was used to localize the Ca^2+ sensor. Therefore, before each experiment, a photo was taken exciting the 5HT6-GECO at 560 nm, and the emission was recorded between 620±30 nm using a CCD-camera (CoolSnap HQ, Visitron Systems, Germany). To measure the ciliary Ca^2+ changes, 5HT6-GECO was excited at 485/405 nm, and the emission was recorded between 535±12.5 nm. The results for [Ca^2+ ]cilium and [Ca^2+]cyt were obtained at 485/405 nm changes and given in ratio. Measurement of the global cytosolic Ca^2+ changes were performed as described recently. In brief, cells were loaded with 5 μM Fura-2, AM (Molecular Probes) in OptiMEM (Invitogen) with 0.02% pluronic (Molecular Probes) for 1 h at RT and 30 min at 37° C. Fura-2 was excited at 340/380 nm, and the emission was recorded between 470 and 550 nm using a CCD-camera (CoolSnap HQ, Visitron Systems, Germany). Control of experiment, imaging acquisition, and data analysis were done with the software package Meta-Fluor (Universal imaging, USA). [Ca2+]i was calculated from the 340/380 nm fluorescence ratio after background subtraction. The formula used to calculate [Ca^2+]i was [Ca^2+]i=Kd×(R−Rmin)/(Rmax−R)×(Sf2/Sb2), where R is the observed fluorescence ratio. The values Rmax and Rmin (maximum and minimum ratios) and the constant Sf2/Sb2 (fluorescence of free and Ca^2+-bound Fura-2 at 380 nm) were calculated using 1 μmol/liter ionomycin (Calbiochem), 5 μmol/liter nigericin, 10 μmol/liter monensin (Sigma), and 5 mmol/liter EGTA to equilibrate intracellular and extracellular Ca^2+ in intact Fura-2-loaded cells. The dissociation constant for the Fura-2·Ca^2+ complex was taken as 224 nmol/liter. ER Ca^2+ signals were detected in Ca^2+ sensor ER-LAR-GECO1 (Addgene, Cambridge, Mass., USA) expressing M1 cells. Cells were excited at 560 nm and emission was recorded between 620±30 nm.

[6] = system: Polycystin-1-deficient collecting duct (plMDCK) cells; assay: plMDCK cyst growth in collagen I matrix; format: cell-based, dog; details: 10 μM forskolin, 5 days; for mean cyst volumes: 0.1 μM or 1 μM, vs control
Protocol: Polycystin-1-deficient collecting duct ([…]) cells were resuspended within a collagen I matrix where they spontaneously form cysts and grow in a secretion-dependent manner in the presence of 10 μM forskolin for 5 days. Medium was supplemented with either 0.1 μM or 1 μM niclosamide or 0.1 μM or 1 μM nitazoxanide. Thereafter, cyst volumes were analyzed. […] The effect of niclosamide and derivatives thereof, e.g. nitazoxanide, on cyst growth was analyzed. Particularly, it was analyzed whether there is a dose-dependent effect on cyst growth. Polycystin-1-deficient collecting duct (p1MDCK) cells were resuspended in a collagen I matrix to form cysts in vitro and were cultured in the presence of […] forskolin for 5 days. The cells were treated with either 0.1 μM or 1 μM niclosamide, or with 0.1 μM or 1 μM of an exemplary niclosamide derivative, namely nitazoxanide.

CCc1oc2ccccc2c1C(=O)c1cc(Br)c(O)c(Br)c1 [benzbromarone]
increase in cyst volume upon knockdown of PKD1/PKD2 (M1 collecting duct cells [1]): inhibition | increase in cyst volume upon knockdown of PKD1/PKD2 (M1 collecting duct cells [1]; listed as Benzbromarone): blocked increase in volume | increase in proliferation (Ki-67) upon knockdown of PKD1/PKD2 (M1 collecting duct cells [2]): inhibition | increase in proliferation (Ki-67) upon knockdown of PKD1/PKD2 (M1 collecting duct cells [2]; listed as Benzbromarone): blocked increase in volume and proliferation | cyst development / cyst growth (PKD1-/- mice (ADPKD) [3]): remarkable delay in cyst development | cyst development / cyst growth (PKD1-/- mice (ADPKD) [3]; listed as Benzbromarone): significantly inhibits cyst growth | pathologic cell proliferation (Ki-67) (PKD1-/- mice (ADPKD) [4]): inhibition of pathologic cell proliferation; also recorded: largely abolished pathologic proliferation | inhibition of TMEM16A (TMEM16A): potently inhibit

Cn1c(=O)c2c(ncn2C)n(C)c1=O [caffeine]
intracellular Ca2+ ([5]; mouse wt and PKD1-/- primary renal epithelial and M1 collecting duct cells): did not increase intracellular Ca^2+

CCCCNc1cc(C(=O)O)cc(S(N)(=O)=O)c1Oc1ccccc1 [bumetanide]
formation of the M1 renal organoid (M1 collecting duct cells [1]; M1 organoids without knockdown, bumetanide 100 μM continuously in matrigel): did not interfere with the formation of the organoid | increase in organoid volume upon knockdown of PKD1 or PKD2 (M1 collecting duct cells [1]; shPKD1/shPKD2 M1 cells, bumetanide 100 μM, 9 days): inhibited

O=C(Nc1ccc([N+](=O)[O-])cc1Cl)c1cc(Cl)ccc1O [niclosamide, 5-Chlor-N-(2-chlor-4-nitrophenyl)-2-hydroxybenzamid]
mean cyst volumes [6]: inhibit cyst growth in a dose-dependent manner; also recorded: significantly decreased | reduction in cyst volumes, 1 μM compared to 0.1 μM [6]: higher reduction in cyst volumes | inhibition of TMEM16A (TMEM16A): potent inhibitor

N=C(N)NC(=O)c1nc(Cl)c(N)nc1N [amiloride]
M1 organoid volume when grown in amiloride (M1 collecting duct cells [1]; M1 renal organoids, data not shown): increase their volume

COc1ccc(CCCOC(Cn2ccnc2)c2ccc(OC)cc2)cc1 (stereo not shown) [SK&F96365]
enhanced Ca2+ entry (SOCE) [5]: inhibited enhanced Ca^2+ entry | enhanced CPA-induced store release [5]: abolished enhanced CPA-induced store release

CC(=O)Oc1ccccc1C(=O)Nc1ncc([N+](=O)[O-])s1 [nitazoxanide]
mean cyst volumes [6]: inhibit cyst growth in a dose-dependent manner; also recorded: significantly decreased | reduction in cyst volumes, 1 μM compared to 0.1 μM [6]: higher reduction in cyst volumes

Cc1nnsc1C(=O)Nc1ccc(-n2nc(C(F)(F)F)cc2C(F)(F)F)cc1 [YM58483]
enhanced Ca2+ entry (SOCE) [5]: inhibited enhanced Ca^2+ entry | enhanced CPA-induced store release [5]: abolished enhanced CPA-induced store release

CC(C)(C)C1CCc2c(sc(NC(=O)c3ccco3)c2C(=O)O)C1 (stereo not shown) [CaCCinhAO1]
increase in cyst volume upon knockdown of PKD1/PKD2 (M1 collecting duct cells [1]): blocked increase in volume | increase in cyst volume upon knockdown of PKD1/PKD2 (M1 collecting duct cells [1]; listed as CaCCinhA01): inhibition | increase in proliferation (Ki-67) upon knockdown of PKD1/PKD2 (M1 collecting duct cells [2]): blocked increase in volume and proliferation | increase in proliferation (Ki-67) upon knockdown of PKD1/PKD2 (M1 collecting duct cells [2]; listed as CaCCinhA01): inhibition
